Source: US9796742B2, “Kinase inhibitors” (Respivert Limited, priority 2012, dated 2017)

Legend:
p38 MAPKα = p38 MAPKα (Homo sapiens (Human), UniProt Q16539); experiment: p38 MAPKα enzyme inhibition (FRET, Z-LYTE; Method 2); format: biochemical
Outline: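 p38 MAPKα (2.5 μL of 200 ng/mL stock) preincubated 2 h at RT with compound, then kinase reaction 1 h at RT with readout via MAPKAP-K2 activation using a Z-LYTE FRET peptide. Protease development 1 h; coumarin/fluorescein emission ratio gives phosphorylation. % inhibition versus uninhibited control; IC50 from concentration-response curve.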

HT29 cells = experiment: IL-1β-induced IL-8 release in HT29 cells; format: cell-based; conditions: Homo sapiens, HT-29, IL-1β-stimulated HT29 cells, read-out: IC50 Values for Inhibition of Cytokine Release, HT29 cells IL-8
Protocol: HT29 cells, a human colon adenocarcinorna cell line, are plated in a 96 well plate (24 hrs) and pre-treated with compounds at the desired concentration for 2 hours before addition of 5 ng/mL of IL-1β (Abcam) for 24 hours. Supernatants are harvested for IL-8 quantification by Sandwich ELISA (Duo-set, R&D System). The IC50 is determined from the dose response curve.

[1] = tested on: intestinal mucosa biopsies from ulcerative colitis patients; experiment: Human biopsy assay (ex-vivo cytokine release); format: cell-based
Protocol: Intestinal mucosa biopsies are obtained from the inflamed regions of the colon of IBD patients. The biopsy material is cut into small pieces (2-3 mm) and placed on steel grids in an organ culture chamber at 37° C. in a 5% CO2/95% O2 atmosphere in serum-free media. DMSO control or test compounds at the desired concentration are added to the tissue and incubated for 24 hr in the organ culture chamber. The supernatant is harvested for determination of IL-6, IL-8, IL-1β and TNFα levels by R&D ELISA. Percentage inhibition of cytokine release by the test compounds is calculated relative to the cytokine release determined for the DMSO control (100%).

[2] = 1 μg/ml, 24 hours, DMSO control 100%

Sequence of p38 MAPKα (Q16539 whole entry): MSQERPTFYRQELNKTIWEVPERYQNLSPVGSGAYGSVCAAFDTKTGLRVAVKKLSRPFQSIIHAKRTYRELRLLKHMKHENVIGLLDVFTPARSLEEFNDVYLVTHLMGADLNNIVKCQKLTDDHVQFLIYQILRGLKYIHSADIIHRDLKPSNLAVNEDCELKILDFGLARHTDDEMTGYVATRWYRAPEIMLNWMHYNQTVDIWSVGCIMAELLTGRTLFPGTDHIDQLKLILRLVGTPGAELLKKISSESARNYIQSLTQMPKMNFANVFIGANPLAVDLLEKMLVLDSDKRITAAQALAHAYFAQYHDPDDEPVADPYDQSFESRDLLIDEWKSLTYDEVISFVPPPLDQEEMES

COCCOCCOCCOc1cc(Nc2nccc(Oc3ccc(NC(=O)Nc4cc(C(C)(C)C)nn4-c4cccc(CP(C)(C)=O)c4)c4ccccc34)n2)cc(OC)c1 [Example 60, 1-(3-(tert-Butyl)-1-(3-((dimethylphosphoryl)methyl)phenyl)-1H-pyrazol-5-yl)-3-(4-((2-((3-methoxy-5-(2-(2-(2-methoxyethoxy)ethoxy)ethoxy)phenyl)amino)pyrimidin-4-yl)oxy)-naphthalen-1-yl)urea]
IC50 (p38 MAPKα): 71 nM | IC50 (HT29 cells): 0.8 nM | cytokine (IL-1b, IL-6 and IL-8) release compared to the DMSO control ([1]; 1 μg/mL, 24 hours, biopsies from ulcerative colitis patients): significantly inhibited | IL-1b release from biopsies of UC patients [1, 2]: 1 ± 2% | IL-6 release from biopsies of UC patients [1, 2]: 0 ± 0% | IL-8 release from biopsies of UC patients [1, 2]: 2 ± 4% | anti-inflammatory effects in biopsies from ulcerative colitis (UC) patients ([1]; ex-vivo human biopsy model): significant anti-inflammatory effects
